In brackets after ≈: the same amount, converted by molar mass.
How the values were obtained:
[1] = Human plasma protein binding (equilibrium dialysis); type: in vitro ADME; details: dialysis 18 hours
[2] = target: T1, Estrogen Receptor (ERα) in MCF-7 cells (Homo sapiens (Human), UniProt P03372); test: MCF-7 ER down-regulation assay (immuno-fluorescence); type: cell-based; details: 18-22 hours incubation
[3] = Thermodynamic solubility (shake flask); type: physicochemical; details: aqueous phosphate buffer, 25 °C, pH 7.4, aqueous buffer, thermodynamic from solid, aqueous phosphate buffer pH 7.4, 24 hours
physchem = details: 1-octanol/aqueous buffer, pH 7.4
[4] = Human hepatocyte assay (metabolic stability); type: in vitro ADME; details: cryopreserved pooled human hepatocytes (LiverPool 10 Donor), in vitro intrinsic clearance
[5] = Human Caco-2 passive permeability A to B Papp; type: in vitro ADME; details: apical pH 6.5, basolateral pH 7.4, with efflux transporter inhibitor cocktail
[6] = Human Caco-2 bidirectional permeability A to B and B to A; type: in vitro ADME
[7] = target: estrogen receptor (ERα) in CAMA-1 cells (Homo sapiens (Human), UniProt P03372); test: Western blotting assay, CAMA-1 cells; type: cell-based; details: compound 100 nM, 48 h, normalised to 100 nM fulvestrant (100%)
Sequence of estrogen receptor (ERα) in CAMA-1 cells (P03372 whole entry): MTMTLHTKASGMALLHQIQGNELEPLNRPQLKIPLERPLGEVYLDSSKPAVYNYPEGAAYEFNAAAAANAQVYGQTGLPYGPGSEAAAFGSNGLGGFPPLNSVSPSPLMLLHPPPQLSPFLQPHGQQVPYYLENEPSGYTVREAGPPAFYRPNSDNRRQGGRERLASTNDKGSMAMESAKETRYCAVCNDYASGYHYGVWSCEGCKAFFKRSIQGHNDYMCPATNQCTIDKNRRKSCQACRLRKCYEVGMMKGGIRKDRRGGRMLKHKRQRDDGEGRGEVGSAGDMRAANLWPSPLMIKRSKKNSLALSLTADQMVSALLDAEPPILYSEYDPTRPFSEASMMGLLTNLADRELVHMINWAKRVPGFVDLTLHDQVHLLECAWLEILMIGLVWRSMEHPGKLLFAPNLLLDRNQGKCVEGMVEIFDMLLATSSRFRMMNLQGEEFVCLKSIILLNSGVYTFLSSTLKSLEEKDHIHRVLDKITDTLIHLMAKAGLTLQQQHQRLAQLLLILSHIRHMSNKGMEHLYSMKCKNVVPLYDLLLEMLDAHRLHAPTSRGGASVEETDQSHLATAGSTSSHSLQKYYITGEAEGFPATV

[8] = target: T1, Estrogen Receptor (ERα) in MCF-7 cells; test: Western blotting assay, MCF-7 cells; type: cell-based; details: compound 100 nM, 48 h, normalised to 100 nM fulvestrant (100%)

T1 sequence (P03372 whole entry): as above

Human plasma protein binding (% free) [1]	IC50 [2]	solubility at 24 h [3]	logD (physchem)	hepatocyte CLint at 1 µM [4]	Papp at 2 h [5]	Papp at 2 h ([6]; Caco-2, 2 hours, pH 7.4)	efflux ratio at 2 h ([6]; Papp(B-A)/Papp(A-B), Caco-2, pH 7.4)	CAMA1 Western % ER deg vs Fv [7]	MCF7 Western % ER deg vs Fv [8]	SMILES
1.5 % free	0.43 nM	301 µM (≈ 132 µg/mL)	3.6	< 1 µL/min/1e6 cells	–	–	–	–	–	CC(C)CN1[C@H](c2ccc(OCCNCCCF)cc2)c2[nH]c3ccccc3c2C[C@H]1C [Example 2, 3-fluoro-N-(2-(4-((1R,3R)-2-isobutyl-3-methyl-2,3,4,9-tetrahydro-1H-pyrido[3,4-b]indol-1-yl)phenoxy)ethyl)propan-1-amine]
2.0 % free	1.2 nM	135 µM (≈ 61.6 µg/mL)	3.4	5 µL/min/1e6 cells	–	–	–	–	–	C[C@@H]1Cc2c([nH]c3ccccc23)[C@@H](c2ccc(OCCNCCCF)cn2)N1CC(C)(C)F [Example 30, 3-fluoro-N-(2-((6-((1S,3R)-2-(2-fluoro-2-methylpropyl)-3-methyl-2,3,4,9-tetrahydro-1H-pyrido[3,4-b]indol-1-yl)pyridin-3-yl)oxy)ethyl)propan-1-amine]
5.8 % free	0.17 nM	854 µM (≈ 407 µg/mL)	2.7	5 µL/min/1e6 cells	14 ×10⁻⁶ cm/s	3.2 ×10⁻⁶ cm/s	1.8	85%	90%	COc1cc(OCCNCCCF)ncc1[C@@H]1c2[nH]c3ccccc3c2C[C@@H](C)N1CC(F)F [Example 40, N-(2-((5-((1R,3R)-2-(2,2-difluoroethyl)-3-methyl-2,3,4,9-tetrahydro-1H-pyrido[3,4-b]indol-1-yl)-4-methoxypyridin-2-yl)oxy)ethyl)-3-fluoropropan-1-amine]

— patent publication US10149839B2, “Chemical compounds” (AstraZeneca AB, priority 2016, dated 2018)
